Source: patent US12440471B2, “Compositions and methods for the treatment of bronchopulmonary dysplasia (BPD) and BPD-associated pulmonary hypertension” (AyuVis Research, Inc., priority 2021, dated 2025)

What was measured:
Format in all cases: in vivo
[1] = test system: hyperoxia-exposed BPD mouse model; test: BPD mouse model: BPD-PH, RV hypertrophy ratios
From the text: AVR-48 protects the lungs from progressing towards BPD-PH. BPD-PH is characterized by abnormal vascular remodeling and rarefication of the pulmonary vasculature leading to vascular growth arrest which eventually leads to increased pulmonary vascular resistance and right heart failure (Hansmann, Sallmon et al. 2021). A similar effect is also seen in mouse models of experimental BPD, as reported by the present inventors, previously (Sun, Choo-Wing et al. 2013, Sureshbabu, Syed et al. 2016, Syed, Das et al. 2017, Leary, Das et al. 2019). There is hypertrophy of the right ventricle (RV) with an increase in the thickness of interventricular septum (IVS). […] There was no change in the ratio in the RA group treated with the drug, which was similar to RA control group (FIG. 8A).
Morphometry and quantification. To study chord length, septal thickness and radial alveolar count in the lungs, RV, LV and IVS thickness, 5 μm-thick left-lobe lung and heart paraffin-embedded sections were stained with H&E. Multiple randomly chosen areas (at least 10 areas) from each section were photographed using 100× total magnification. Sections with large airways or blood vessels from the lung were excluded for lung morphometry while quantitative measurements of PH-induced RV hypertrophy ratios (RV/LV and RV/LV+IVS) were done using the methodology described previously (Sun, Choo-Wing et al. 2013). The lung morphometry parameters were measured as described (Bhandari, Choo-Wing et al. 2008, Leary, Das et al. 2019, Das, Acharya et al. 2020, Das, Curstedt et al. 2020) either using ImageJ (a free software of NIH) or CellSens software (version 7, Olympus).

[2] = test system: hyperoxia-exposed BPD mouse model; test: BPD mouse model: multiplex ELISA of blood serum cytokines
Experimental: Multiplex ELISA. Lung lysate and blood plasma from control and AVR-48 treated group were used for Multiplex ELISA performed on 4 separate inflammatory panels of Meso Scale Discovery multispot assay system (MSD, Rockville, MD) to detect 2 chemokines (MIP-2, MCP-1) and 8 cytokines: IL-21, IP-10, IFNγ, IL-1(3, TNFα, IL-17, IL-10 and IL-6 following the manufacturer's instructions. Briefly, samples were diluted 1:1 in a total volume of 25 μl with the dilution buffer provided with MSD kit and incubated with the above labelling antibodies for 2 h, RT followed by washing with PB ST. The […] was detected using the MSD-specific luminometer.

[3] = test system: hyperoxia-exposed BPD mouse model; test: Hyperoxia-exposed BPD mouse model: dose response and lung morphometry
Experimental: Simultaneously, the AVR-48 nanosuspension formulation IN (0.11 mg/kg) was tested as well as in solution form, IP and IV (10 mg/kg) (through the facial vein), and confirmed that all routes of administration gave similar outcomes. […] From the PK study, as described above, the bioavailability of the drug in the plasma and lungs were similar when delivered as solution formulation via either IN or IP routes. As the goal of this study is to develop AVR-48 as a commercially viable and applicable therapeutic candidate for BPD, the IP route was selected as the preferred mode of drug delivery in neonatal murine pups, with the rationale that it would be easier to deliver the drug systemically to preterm babies IV, rather than the IN route. The results and outcome of all the routes of administration have been presented in a cumulative manner, as the endpoint was similar for all routes of administration. […] FIG. 1 is a dose response study of AVR-48 at different doses of […], given IP. ****p<0.0001. N=5-7 mice per group. 10 mg/kg (IP) was selected as the most efficacious dose. IP: intraperitoneal; Hyp: hyperoxia; BPD: Bronchopulmonary dysplasia.
Formulation of AVR-48 for efficacy and toxicokinetic studies. For the mouse dose response efficacy studies, AVR-48 was reconstituted in 0.9% sterile normal saline to give a final dose concentration of […] as a colorless solution, and injected IP (30 μl) on P2 and P4. The PLGA encapsulated AVR-48 or the GFP-tagged analog was resuspended in deionized sterile water to make a nanosuspension with final dose concentration of 0.025, 0.05 and 0.11 mg/kg/drop. The surfactant Curosurf® (Cheisi Parma, Italy), available commercially, was delivered IN at a volume of 3 μl per nostril, on P2 and P4. For the toxicokinetic study of AVR-48 in rat pups, a formulation of 10% DMSO, 20% tetraglycol, 20% PEG 400, and 50% sterile water was made fresh before administration (Shah, Das et al. 2021).
For the hyperoxia experiment, newborn pups were exposed to 100% hyperoxia (P0), along with their mothers, in cages in an airtight Plexiglas chamber (OxyCycler; Biospherix, Redfield, NY, USA) as described previously by the present inventors (Syed, Das et al., 2017, Leary, Das et al. 2019, Das, Acharya et al. 2020, relevant portions incorporated herein) for 4 consecutive days (till P4) and removed to RA on P5 to be recovered till P14, so as to emulate the human BPD condition. All pups were sacrificed on P14 for further experimental analyses. The pups without any hyperoxia exposure served as the corresponding RA (normoxia) controls.
Histology, immunohistochemistry and immunofluorescence. Both the RA control and BPD mice were anesthetized (using an overdose of a cocktail of xylazine-ketamine) and lung and heart tissues were harvested after perfusion and fixed overnight in 4% paraformaldehyde. Fixed tissues were then washed in fresh PBS, dehydrated using 70% ethanol, cleared, and embedded in paraffin to be sectioned and stained with hematoxylin and eosin (H&E) for lung morphometry or immunohistochemistry/immunofluorescence as previously described (Leary, Das et al. 2019, Das, Achaiya et al. 2020, Das, Curstedt et al. 2020). Immunofluorescence staining was done for Ki67 (Abcam, 1:10) and Von Wilebrand Factor (vWF-DAKO, 1:100) on lung paraffin sections following the protocol as described earlier (Leary, Das et al. 2019) while TUNEL staining was done following the manufacturer's instructions (Roche).
Morphometry and quantification. To study chord length, septal thickness and radial alveolar count in the lungs, RV, LV and IVS thickness, 5 μm-thick left-lobe lung and heart paraffin-embedded sections were stained with H&E. Multiple randomly chosen areas (at least 10 areas) from each section were photographed using 100× total magnification. […]

[4] = 2 doses IP 10 mg/kg on P2 and P4, comparable to RA controls
[5] = IP dosing, doses 0.5, 2.0, 5.0 and 10 mg/kg

CC(=O)N[C@@H]1C(Oc2ccc([N+](=O)[O-])cc2)OC(CO)C(O)C1O (stereo partly shown) [AVR-48]
Fulton's Index (RV/LV+IVS) ([1]; BPD group after treatment): decreased significantly | RV/left ventricle (LV) ratio ([1]; BPD group after treatment): decreased significantly | RV/LV ratio and Fulton's Index in room air animals ([1]; RA group treated with the drug vs RA control): no change | IFNγ ([2]; AVR-48 treated group): decreased to normal levels | IL-1β ([2]; AVR-48 treated group): decreased to normal levels | IP-10 ([2]; AVR-48 treated group): decreased to normal levels | MCP-1 ([2]; AVR-48 treated group): decreased to normal levels | TNFα ([2]; AVR-48 treated group): decreased to normal levels | IL-10 ([2]; BPD group): markedly increased | IL-17 ([2]; treated vs untreated BPD): no change | IL-21 ([2]; treated vs untreated BPD): no change | MIP-2 ([2]; treated vs untreated BPD): no change | prevention of the BPD phenotypes ([3]; 10 mg/kg IP): > 80% | chord length (alveolar sacs) [3, 4]: regained their normal shape and size | septal thickness (alveolar sacs) [3, 4]: regained their normal shape and size | radial alveolar counts (RAC) ([3]; 2 doses IP 10 mg/kg on P2 and P4, vs BPD): improved | chord length ([3]; AVR-48 administered adjuvantly with CS (Curosurf IN)): normal | interaction between the drug and CS ([3]; AVR-48 administered adjuvantly with CS in mouse pups): no adverse effect | minimum efficacious dose [3, 5]: 5.0 mg/kg | optimum / most efficacious dose [3, 5]: 10 mg/kg | minimum efficacious dose ([3]; juvenile mouse): 5 mg/kg/day | inflammatory cytokines in neonatal mouse pups with BPD ([3]; mouse, in vivo): decrease inflammatory cytokines
